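In this assay, cells in 96-well plates receive the compound at five concentrations for 48 hours. Endpoints are linearly interpolated between the surrounding concentrations. At the GI50, growth is halved.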 Activity calls are given as the source filed them. No stated cut-off is given here; in the data, active = GI50 up to about 1.1 µM and inactive = higher.
Experiments:
Experiment in all cases: inhibition of tumour cell growth, NCI panel, 48 h
[1] = system: TK-10
[2] = system: U-251
[3] = system: NCI-H522
[4] = system: MDA-MB-231
[5] = system: BT-549
[6] = system: NCI/ADR-RES
[7] = system: M14
[8] = system: UO-31
[9] = system: UACC-62
[10] = system: CAKI-1
[11] = system: MOLT-4
[12] = system: SF-268
[13] = system: HL-60
[14] = system: RXF 393
[15] = system: EKVX
[16] = system: SF-539
[17] = system: CCRF-CEM
[18] = system: HOP-62
[19] = system: ACHN
[20] = system: SF-295

Measured: GI50

CN=C(n1ccnc1)n1ccnc1
inactive: [1] > 100 µM | [2] > 100 µM | [3] > 100 µM | [4] > 100 µM | [5] > 100 µM | [6] > 100 µM | [7] > 100 µM | [8] > 100 µM | [9] > 100 µM | [10] > 100 µM | [11] > 100 µM | [12] > 100 µM | [13] > 100 µM | [14] > 100 µM | [15] > 100 µM | [16] > 100 µM | [17] > 100 µM

COC(=O)c1c(O)ccc2c1C1(Cc3ccccc3C1=O)C(O)O2 (stereo not given)
inactive: [1] 24.3 µM | [2] 20.5 µM | [3] 3.86 µM | [4] 17.3 µM | [5] 5.09 µM | [6] 27.8 µM | [7] 17.3 µM | [18] 13.8 µM | [8] 10.1 µM | [10] 16.1 µM | [11] 5.04 µM | [19] 14.9 µM | [12] 15.6 µM | [20] 42.3 µM | [13] 4.02 µM | [14] 51.5 µM | [15] 23.1 µM | [16] 20.1 µM | [17] 2.46 µM

Nc1n[nH]c2c(C(=O)Nc3ccc(Cl)cc3)c(N)n(N)c(=O)c12
inactive: [1] > 100 µM | [2] > 100 µM | [3] > 100 µM | [4] > 100 µM | [5] > 100 µM | [6] > 100 µM | [7] > 100 µM | [8] > 100 µM | [9] > 100 µM | [10] > 100 µM | [11] > 100 µM | [12] > 100 µM | [13] > 100 µM | [14] > 100 µM | [15] > 100 µM | [16] > 100 µM | [17] > 100 µM

CCOc1cc(NC(C)=O)ccc1C(=O)NN1C(=O)C(Cl)C1c1ccc(O)c(OC)c1 (stereo not given)
inactive: [1] 3.08 µM | [3] 6.35 µM | [4] 13.3 µM | [5] 8.83 µM | [6] 20.4 µM | [7] 11.8 µM | [18] 16.1 µM | [8] 2.43 µM | [9] 12.3 µM | [10] 16.5 µM | [11] 5.3 µM | [19] 16.6 µM | [12] 14.7 µM | [20] 21.3 µM | [13] 15.7 µM | [14] 12 µM | [15] 16.1 µM | [16] 11.4 µM | [17] 4.67 µM

Cn1cncc1CC1COC(=O)C1C(O)c1ccccc1 (stereo not given)
inactive: [1] > 100 µM | [2] > 100 µM | [3] > 100 µM | [4] > 100 µM | [5] > 100 µM | [6] > 100 µM | [7] > 100 µM | [18] > 100 µM | [9] > 100 µM | [10] > 100 µM | [11] > 100 µM | [19] > 100 µM | [12] > 100 µM | [20] > 100 µM | [13] > 100 µM | [14] > 100 µM | [15] > 100 µM | [16] > 100 µM | [17] > 100 µM

O=C1NC(N2CCCC(CO)C2)=N/C1=C\c1ccc(O)cc1 (stereo not given)
inactive: [1] > 100 µM | [2] > 100 µM | [3] > 100 µM | [4] > 100 µM | [5] > 100 µM | [6] > 100 µM | [7] > 100 µM | [18] > 100 µM | [8] > 100 µM | [9] > 100 µM | [10] > 100 µM | [11] > 100 µM | [19] > 100 µM | [12] > 100 µM | [20] > 100 µM | [13] > 100 µM | [14] > 100 µM | [15] > 100 µM | [16] > 100 µM | [17] > 100 µM

Cn1nc(-c2ccccc2)nc1[N+](=O)[O-]
inactive: [1] > 10 µM | [2] > 10 µM | [3] > 10 µM | [4] > 10 µM | [5] > 10 µM | [6] > 10 µM | [7] > 10 µM | [18] > 10 µM | [8] > 10 µM | [9] > 10 µM | [10] > 10 µM | [11] > 10 µM | [19] > 10 µM | [12] > 10 µM | [20] > 10 µM | [13] > 10 µM | [14] > 10 µM | [15] > 10 µM | [16] > 10 µM | [17] > 10 µM

N#Cc1c(-c2ccccc2)c2c([nH]c1=O)-c1cc([N+](=O)[O-])ccc1CCC2
inactive: [1] 44.4 µM | [2] 33.3 µM | [3] 27.5 µM | [4] 51.8 µM | [5] 17.4 µM | [6] 22 µM | [7] 33.1 µM | [18] 22.7 µM | [8] 41.4 µM | [9] 17.5 µM | [10] 41.3 µM | [11] 25 µM | [19] 24.8 µM | [12] 26.6 µM | [20] 18.9 µM | [13] 35.2 µM | [14] 12.1 µM | [15] 26.7 µM | [16] 27.7 µM | [17] 37.6 µM

C[C@]1(CO)[C@H]2CC[C@@]34C=C[C@@](CO)(CC[C@H]3[C@]2(C)CC[C@H]1O)C4
inactive: [1] > 100 µM | [2] 63 µM | [3] 64.4 µM | [4] 28.2 µM | [5] 56.2 µM | [6] 27.3 µM | [7] 73.6 µM | [18] 62.2 µM | [8] 35.4 µM | [9] 94.6 µM | [10] 30.9 µM | [11] 8.93 µM | [19] 31.9 µM | [12] 47.3 µM | [20] 57.9 µM | [13] 37.4 µM | [14] 36.9 µM | [15] 29.4 µM | [16] 96.2 µM | [17] > 100 µM

CC(C)(C)OC(=O)NCC(c1c[nH]c2ccc(Br)cc12)c1c[nH]c2ccc(Br)cc12
inactive: [1] 12.6 µM | [2] 6.43 µM | [3] 10.7 µM | [4] 10.5 µM | [5] 12.4 µM | [6] 6.82 µM | [7] 3.56 µM | [18] 12.7 µM | [8] 7.11 µM | [9] 11.1 µM | [10] 11 µM | [19] 5.96 µM | [12] 8.43 µM | [20] 9.89 µM | [13] 11.7 µM | [14] 11.6 µM | [15] 4.52 µM | [16] 14.4 µM | [17] 5.12 µM

Reference: ChEMBL document CHEMBL1201862, “PubChem BioAssay data set” (2004)
